# Test results published in patent publication US20190076406A1, “METHODS AND COMPOSITIONS FOR TREATING CONDITIONS ASSOCIATED WITH ANGIOGENESIS USING A VASCULAR ADHESION PROTEIN-1 (VAP-1) INHIBITOR” (MASSACHUSETTS EYE & EAR INFIRMARY, priority 2007, published 2019).
# Tests used:
# [1] = system: IL-1β-induced corneal lymphangiogenesis in BALB/c mice; assay: IL-1β-induced corneal lymphangiogenesis (LYVE-1 stain); type: in vivo, mouse; details: IL-1β pellet; i.p. administration; vs vehicle
# Protocol: (§1) BALB/c mice were anesthetized by intrapcritoneal (i.p.) injection of pentobarbital sodium (60 mg/kg). Hydron pellets (0.3 μl) containing 30 ng mouse IL-1β (401-ML; R&D Systems) were prepared and implanted into the corneas. Pellets were positioned 1 mm from the corneal limbus. Implanted eyes were treated with Bacitracin ophthalmic ointment (E. Fougera & Co.) to prevent infection.
# (§2) To block VAP-1, mice received daily i.p. injections of a specific VAP-1 inhibitor, Compound II (R-tech Ueno Ltd., Tokyo, Japan) as described above. A daily dose of 0.3 mg/kg was administered at day 0 and continued until the sixth day after implantation. Two, four and six days after implantation, digital images of the corneal vessels were obtained and recorded using OpenLab software version 2.2.5 (Improvision Inc.) with standardized illumination and contrast and were saved onto disks. The quantitative analysis of new vessel growth in the mouse corneas was performed using Scion Image software (version 4.0.2; Scion Corp.).
# Eyes were enucleated and fixed with 4% paraformaldehyde for one hour at 4° C. For whole-mount preparation, the corneas were exposed by removing other portions of the eye (i.e. iris, sclera, retina, and conjunctiva). After washing with PBS, tissues were placed in methanol for 20 minutes. […]
# [2] = system: laser-induced CNV in Brown-Norway rats; assay: Laser-induced CNV, fluorescein angiography leakage grading; type: in vivo, rat; details: day 7 after laser injury, 0.3 mg/kg daily i.p., n=12
# Protocol: (§3) Brown-Norway rats were anesthetized with 0.2-0.3 ml of a 50:50 mixture of 100 mg/ml Ketamine and 20 mg/ml Xylazine. Pupils were dilated with 5.0% Phenylephrine and 0.8% Tropicamide. CNV was induced with a 532 nm laser (Oculight GLx, Iridex, Mountain View, Calif.). Six laser spots (150 mW, 100 μm, 100 msec) were placed in each eye using a slit-lamp delivery system and a cover glass as a contact lens. Production of a bubble at the time of laser confirmed the rupture of the Bruch's membrane.
# (§4) To block VAP-1, a specific VAP-1 inhibitor, Compound II described above, was used (R-tech Ueno, Ltd., Tokyo, Japan). After laser injury, the inhibitor (0.3 mg/kg BW) was administered to the animals by daily i.p. injections. As a control, some animals received the same regimen for the vehicle solution alone.
# Seven days after laser injury, vascular leakage from the CNV lesions was assessed using fluorescein angiography (FA), as described previously (Zambarakji et al. (2001) IOVS 42: 1553-60). Briefly, FA was performed in anesthetized animals from VAP-1 inhibitor- or vehicle-treated groups, using a digital fundus camera (Model TRC 50 IA; Topcon, Paramus, N.J.). Fluorescein injections were performed intraperitoneally (0.2 ml of 2% fluorescein; Akorn, Decatur, Ill.).
# The Grade-IIB lesions were defined as clinically significant, as described previously.
# [3] = system: laser-induced CNV in Brown-Norway rats; assay: Laser-induced CNV, lesion size in choroidal flatmounts; type: in vivo, rat; details: 0.3 mg/kg BW daily i.p., mean±SEM
# Protocol: as §3, §4
# One week or two weeks after laser injury and treatment with VAP-1 inhibitor or vehicle, the size of CNV lesions was quantified using choroidal flat mounts. Briefly, rats were anesthetized and perfused through the left ventricle with 20 ml PBS followed by 20 ml of 5 mg/ml fluorescein labeled dextran (FITC-dextran; MW=2×106, SIGMA) in 1% gelatin. The eyes were enucleated and fixed in 4% paraformaldehyde for 3 hours. The anterior segment and retina were removed from the eyecup. […] The average size of the CNV lesions was then determined and used for the evaluation.
# [4] = molecular target: T1, human semicarbazide-sensitive amine oxidase (SSAO) (Homo sapiens, UniProt Q16853); assay: IC50 against human SSAO; type: biochemical
# T1 sequence (Q16853 1-763): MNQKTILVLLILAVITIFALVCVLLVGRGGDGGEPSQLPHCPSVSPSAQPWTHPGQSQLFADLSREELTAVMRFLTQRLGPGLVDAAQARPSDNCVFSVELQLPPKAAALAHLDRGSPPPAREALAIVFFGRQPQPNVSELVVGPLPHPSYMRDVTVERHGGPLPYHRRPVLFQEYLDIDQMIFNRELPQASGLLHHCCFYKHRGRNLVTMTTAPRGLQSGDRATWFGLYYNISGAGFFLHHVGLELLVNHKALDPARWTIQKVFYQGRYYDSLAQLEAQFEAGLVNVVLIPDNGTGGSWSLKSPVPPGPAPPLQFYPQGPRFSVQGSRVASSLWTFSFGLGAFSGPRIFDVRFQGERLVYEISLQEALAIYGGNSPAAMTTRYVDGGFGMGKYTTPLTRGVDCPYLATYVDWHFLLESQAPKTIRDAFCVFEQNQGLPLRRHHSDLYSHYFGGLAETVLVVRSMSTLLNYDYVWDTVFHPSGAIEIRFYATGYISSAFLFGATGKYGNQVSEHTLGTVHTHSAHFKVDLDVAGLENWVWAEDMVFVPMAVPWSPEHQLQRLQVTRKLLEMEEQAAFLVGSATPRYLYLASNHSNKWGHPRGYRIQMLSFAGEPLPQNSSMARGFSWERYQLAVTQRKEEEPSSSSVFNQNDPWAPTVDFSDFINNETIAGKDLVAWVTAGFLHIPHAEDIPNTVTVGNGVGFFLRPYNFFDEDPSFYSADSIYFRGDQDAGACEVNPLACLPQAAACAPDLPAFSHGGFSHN
# [5] = system: IL-1β-induced corneal angiogenesis in BALB/c mice; assay: IL-1β-induced corneal angiogenesis; type: in vivo, mouse; details: day 6 after pellet implantation; 0.3 mg/kg daily i.p.
# Protocol: as §1, §2
structure (smiles),measurement,setting,value
CC(=O)Nc1nc(CCc2ccc(NC(=N)NN)cc2)c(Cc2ccc(S(C)(=O)=O)cc2)s1 [Compound II],growth of lymphatic vessels in cornea,[1],reduced growth of lymphatic vessels
same,incidence of clinically significant CNV lesions graded as IIB,[2],41.8%
same,CNV size,"[3]; 7 days after laser injury, n=7","14,536±2175 μm^2"
same,CNV size,"[3]; fourteen days after laser injury, n=10 eyes, not significant vs vehicle (p=0.5)","23,992±1437 μm^2"
same,IC50,[4],7 nM
same,neovascular area relative to control mice (IL-1β alone or IL-1β+vehicle),[5],about half
